Where a name gives a salt, the structure may show the parent alone.

human recombinant LRRK2 protein, sequence (Q5S007 whole entry): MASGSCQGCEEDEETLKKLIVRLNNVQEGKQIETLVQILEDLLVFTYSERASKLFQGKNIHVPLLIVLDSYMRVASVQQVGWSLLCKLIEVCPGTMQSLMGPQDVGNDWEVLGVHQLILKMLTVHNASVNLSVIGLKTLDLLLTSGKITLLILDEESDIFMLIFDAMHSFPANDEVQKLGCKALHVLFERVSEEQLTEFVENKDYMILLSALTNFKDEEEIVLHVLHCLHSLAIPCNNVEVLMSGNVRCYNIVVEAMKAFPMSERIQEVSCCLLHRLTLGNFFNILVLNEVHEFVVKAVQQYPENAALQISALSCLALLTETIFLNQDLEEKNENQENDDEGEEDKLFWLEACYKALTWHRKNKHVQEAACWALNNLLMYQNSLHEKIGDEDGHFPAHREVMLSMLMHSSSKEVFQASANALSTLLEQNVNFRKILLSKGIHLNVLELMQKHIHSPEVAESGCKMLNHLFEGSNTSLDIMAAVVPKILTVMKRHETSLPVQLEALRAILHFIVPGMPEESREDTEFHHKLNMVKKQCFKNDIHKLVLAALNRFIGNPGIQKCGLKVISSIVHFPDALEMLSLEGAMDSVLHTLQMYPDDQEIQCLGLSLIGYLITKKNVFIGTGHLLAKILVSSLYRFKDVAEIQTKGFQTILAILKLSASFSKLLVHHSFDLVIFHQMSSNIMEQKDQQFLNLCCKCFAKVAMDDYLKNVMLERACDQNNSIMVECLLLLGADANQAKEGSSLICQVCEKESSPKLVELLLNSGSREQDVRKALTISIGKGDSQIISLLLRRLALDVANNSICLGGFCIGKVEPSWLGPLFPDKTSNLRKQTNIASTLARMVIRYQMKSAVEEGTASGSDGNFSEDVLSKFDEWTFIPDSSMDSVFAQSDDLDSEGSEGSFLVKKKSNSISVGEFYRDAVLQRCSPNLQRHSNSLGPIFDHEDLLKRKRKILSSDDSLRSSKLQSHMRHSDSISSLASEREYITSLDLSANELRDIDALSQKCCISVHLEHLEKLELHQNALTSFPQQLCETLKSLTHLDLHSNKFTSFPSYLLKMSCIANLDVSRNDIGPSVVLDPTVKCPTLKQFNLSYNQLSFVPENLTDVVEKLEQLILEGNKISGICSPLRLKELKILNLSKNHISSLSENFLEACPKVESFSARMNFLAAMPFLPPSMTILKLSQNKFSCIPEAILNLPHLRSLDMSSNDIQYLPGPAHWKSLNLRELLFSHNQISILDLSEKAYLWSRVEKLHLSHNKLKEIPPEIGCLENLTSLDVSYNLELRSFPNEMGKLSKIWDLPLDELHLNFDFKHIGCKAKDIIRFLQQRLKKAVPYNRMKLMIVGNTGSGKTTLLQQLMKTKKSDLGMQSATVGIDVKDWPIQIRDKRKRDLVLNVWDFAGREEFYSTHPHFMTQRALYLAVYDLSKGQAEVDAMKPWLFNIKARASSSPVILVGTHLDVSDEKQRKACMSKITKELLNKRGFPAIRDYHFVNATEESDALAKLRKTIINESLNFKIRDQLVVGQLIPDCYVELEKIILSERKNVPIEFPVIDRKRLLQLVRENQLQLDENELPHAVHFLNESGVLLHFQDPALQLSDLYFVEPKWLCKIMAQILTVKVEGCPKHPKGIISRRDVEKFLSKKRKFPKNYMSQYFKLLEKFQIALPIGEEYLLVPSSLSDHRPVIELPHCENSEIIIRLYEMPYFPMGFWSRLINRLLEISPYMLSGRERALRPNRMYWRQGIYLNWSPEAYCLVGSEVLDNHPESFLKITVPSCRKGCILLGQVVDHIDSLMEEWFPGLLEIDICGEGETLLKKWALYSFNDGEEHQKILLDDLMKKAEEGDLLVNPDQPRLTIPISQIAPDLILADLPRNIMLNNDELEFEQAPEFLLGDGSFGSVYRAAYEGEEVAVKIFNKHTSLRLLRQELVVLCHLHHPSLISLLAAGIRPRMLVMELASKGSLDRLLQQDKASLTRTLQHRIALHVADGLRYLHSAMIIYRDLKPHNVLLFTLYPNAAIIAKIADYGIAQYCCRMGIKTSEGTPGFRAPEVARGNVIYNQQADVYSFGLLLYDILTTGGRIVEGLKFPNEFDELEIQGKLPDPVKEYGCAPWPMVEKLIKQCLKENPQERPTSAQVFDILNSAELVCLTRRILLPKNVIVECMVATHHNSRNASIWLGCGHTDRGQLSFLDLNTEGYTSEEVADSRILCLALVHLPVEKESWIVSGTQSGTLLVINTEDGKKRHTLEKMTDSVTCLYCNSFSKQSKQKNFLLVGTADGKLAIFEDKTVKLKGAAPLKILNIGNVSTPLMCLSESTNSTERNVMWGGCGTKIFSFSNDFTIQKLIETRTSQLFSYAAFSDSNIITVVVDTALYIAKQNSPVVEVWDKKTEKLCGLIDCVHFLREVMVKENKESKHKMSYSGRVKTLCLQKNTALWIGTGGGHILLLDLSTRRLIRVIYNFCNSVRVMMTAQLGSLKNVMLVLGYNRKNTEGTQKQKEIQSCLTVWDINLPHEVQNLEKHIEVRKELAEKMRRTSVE

The target of this assay is human recombinant LRRK2 protein (Homo sapiens, UniProt Q5S007). As to the kind of experiment: LRRK2 kinase activity assay (ADP-Glo, LRRKtide peptide). Format: biochemical. Conditions: human recombinant LRRK2 wt, LRRKtide peptide and ATP, 1 h at 37° C. The procedure, abridged:
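Human recombinant LRRK2 reacted with LRRKtide peptide and ATP for 1 h at 37 °C in the presence of compound. ADP formed measured by ADP-Glo luminescence; IC50 fitted from 10 concentrations run in duplicate.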
On the technique in general: ADP-Glo turns the ADP formed in a reaction into a luminescent signal.
`C[C@H]1CCNCCCn2cc(cn2)-c2n[nH]c3ccc(cc23)O1` [Example 233, (12S)-12-methyl-13-oxa-4,5,9,18,19-pentaazatetracyclo [12.5.2.1^2,5.0^17,20] docosa-1(19),2(22),3,14(21),15,17(20)-hexaene]: the IC50 was < 10 nM. As to `O=C1COCCn2ncc(n2)-c2n[nH]c3ccc(cc23)OCCN1` [Example 222, 8,14-dioxa-4,5,11,19,20,23-hexaazatetracyclo[13.5.2.1^2,5.0^18,21]tricosa-1(20),2(23),3,15(22),16,18(21)-hexaen-10-one], the IC50 was < 1000 nM. As for `C[C@H]1CCOCCOCc2nc(cs2)-c2n[nH]c3ccc(cc23)O1` [Example 62, (13S)-13-methyl-7,10,14-trioxa-4-thia-19,20,23-triazatetracyclo[13.5.2.1^2,5.0^18,21]tricosa-1(20),2,5(23),15(22),16,18(21)-hexaene], the figure is < 100 nM; as for `C[C@@H]1CCNCCOc2cc(cc(N3CCOCC3)c2)-c2n[nH]c3ccc(cc23)O1` [Example 173, (13R)-13-methyl-4-(morpholin-4-yl)-7,14-dioxa-10,19,20-triazatetracyclo[13.5.2.1^2,6.0^18,21]tricosa-1(20),2(23),3,5,15,17,21-heptaene], < 10 nM; as for `C[C@@H]1CCN(C)CC[C@H](C)n2ncc(n2)-c2n[nH]c3ccc(cc23)O1` [Example 244, (6S,12R)-6,9,12-trimethyl-13-oxa-4,5,9,18,19,22-hexaazatetracyclo[12.5.2.1^2,5.0^17,20]docosa-1(19),2(22),3,14(21),15,17(20)-hexaene], < 100 nM. As for `CC1Oc2cc(cc(N3CCOCC3)c2)-c2n[nH]c3ccc(cc23)OCCCNC1=O` (stereo not shown) [Example 176, 8-methyl-4-(morpholin-4-yl)-7,14-dioxa-10,19,20-triazatetracyclo[13.5.2.1^2,6.0^18,21]tricosa-1(20),2,4,6(23),15,17,21-heptaen-9-one], the figure is < 10 nM; as for `CN1CCOc2ccc3[nH]nc(c3c2)-c2cccc(c2)OCCC1=O` [Example 221, 11-methyl-7,14-dioxa-11,19,20-triazatetracyclo[13.5.2.1^2,6.0^18,21] tricosa-1(20),2(23),3,5,15,17,21-heptaen-10-one], < 100 nM.

As for `O=C1NCCCOc2ccc3[nH]nc(c3c2)-c2cncc(c2)OC12CC2` [Example 156, 7′,14′-dioxa-4′,10′,19′,20′-tetraazaspiro[cyclopropane-1,8′-tetracyclo[13.5.2.1^2,6.0^18,21]tricosane]-1′(20′),2′(23′),3′,5′,15′,17′,21′-heptaen-9′-one], the IC50 is < 100 nM. The figure for `c1nn2cc1-c1n[nH]c3ccc(nc13)OCCOCCOCC2` [Example 73, 8,11,14-trioxa-4,5,19,20,22-pentaazatetracyclo[13.5.2.1^2,5.0^18,21]tricosa-1(20),2(23),3,15(22), 16,18(21)-hexaene] is < 100 nM; for `c1cc2[nH]nc3c2cc1OCCCNCCCn1ncc-3n1` [Example 182, 13-oxa-4,5,9,18,19,22-hexaazatetracyclo[12.5.2.1^2,5.0^17,20] docosa-1(19),2(22),3,14(21),15,17(20)-hexaene] it is < 10 nM; for `C[C@H]1COCCOCCn2cc(cn2)-c2n[nH]c3ccc(cc23)O1` [Example 24, (13S)-13-methyl-8,11,14-trioxa-4,5,19,20-tetraazatetracyclo[13.5.2.1^2,5.0^18,21]tricosa-1(20),2(23),3,15(22),16,18(21)-hexaene] it is < 10 nM.

For `O=C1NCCCOc2ccc3[nH]nc(c3c2)-c2cccc(c2)[C@H]2C[C@H]12` [Example 164, (7S,9S)-15-oxa-11,20,21-triazapentacyclo[14.5.2.1^2,6.0^7,9.0^19,22] tetracosa-1(21),2(24),3,5,16(23),17,19(22)-heptaen-10-one], the IC50 was < 100 nM.

As for `O=C1COc2cc(ccc2F)-c2n[nH]c3ccc(cc23)OCCCN1` [Example 138, 5-fluoro-7,14-dioxa-10,19,20-triazatetracyclo[13.5.2.1^2,6.0^18,21]tricosa-1(20),2,4,6(23),15,17,21-heptaen-9-one], the IC50 is < 100 nM. Consider `O=C1CCn2ncc(n2)-c2n[nH]c3ccc(cc23)OC[C@H](F)CN1` [Example 227, (11R)-11-fluoro-13-oxa-4,5,9,18,19,22-hexaazatetracyclo [12.5.2.1^2,5.0^17,20]docosa-1(19),2(22),3,14(21),15,17(20)-hexaen-8-one], for which the IC50 is < 10 nM. As for `C[C@@H]1CCOC[C@H](C)Oc2cncc(c2)-c2n[nH]c3ccc(cc23)O1` [Example 22, (8S,13R)-8,13-dimethyl-7,10,14-trioxa-4,19,20-triazatetracyclo[13.5.2.1^2,6.0^18,21]tricosa-1(20),2(23),3,5,15(22),16,18(21)-heptaene], the figure is < 10 nM; as for `O=C1COc2cc(cc(C3CCCCO3)c2)-c2n[nH]c3ccc(cc23)OCCCN1` (stereo not shown) [Example 218, 4-(oxan-2-yl)-7,14-dioxa-10,19,20-triazatetracyclo[13.5.2.1^2,6.0^18,21]tricosa-1(20),2(23),3,5,15,17,21-heptaen-9-one], < 10 nM. As for `O=C1COc2cc(cc(C3CCOCC3)c2)-c2n[nH]c3ccc(cc23)OCCCN1` [Example 146, 4-(oxan-4-yl)-7,14-dioxa-10,19,20-triazatetracyclo[13.5.2.1^2,6.0^18,21]tricosa-1(20),2(23),3,5,15,17,21-heptaen-9-one], the figure is < 10 nM; as for `C[C@H]1COCCOCCc2cncc(c2)-c2n[nH]c3ccc(cc23)O1` [Example 69, (14S)-14-methyl-9,12,15-trioxa-4,20,21-triazatetracyclo[14.5.2.1^2,6.0^19,22] tetracosa-1(21),2(24),3,5,16(23),17,19(22)-heptaene], < 100 nM. As for `C[C@@H]1COCCOCCn2cc(cn2)-c2n[nH]c3c(F)cc(cc23)O1` [Example 88, (13R)-17-fluoro-13-methyl-8,11,14-trioxa-4,5,19,20-tetraazatetracyclo [13.5.2.1^2,5.0^18,21]tricosa-1(20),2(23),3,15(22),16,18(21)-hexaene], the figure is < 10 nM; as for `C[C@H]1COCCOc2ccc3[nH]nc(c3c2)-c2cnn(c2)CCO1` [Example 61, (9S)-9-methyl-8,11,14-trioxa-4,5,19,20-tetraazatetracyclo[13.5.2.1^2,5.0^18,21] tricosa-1(20),2(23),3,15(22),16,18(21)-hexaene], < 100 nM. As for `C[C@H]1CCNC(=O)COc2cc(cc(N3CCOCC3)c2)-c2n[nH]c3ccc(cc23)O1` [Example 174, (13S)-13-methyl-4-(morpholin-4-yl)-7,14-dioxa-10,19,20-triazatetracyclo[13.5.2.1^2,6.0^18,21]tricosa-1(20),2(23),3,5,15,17,21-heptaen-9-one], the IC50 is < 10 nM. The figure for `CN1CCCOc2ccc3[nH]nc(c3c2)-c2cc(ccn2)OCC1=O` [Example 194, 10-methyl-7,14-dioxa-3,10,19,20-tetraazatetracyclo[13.5.2.1^2,6.0^18,21]tricosa-1(20),2(23),3,5,15(22),16,18(21)-heptaen-9-one] is < 1000 nM; for `FC(F)(F)c1cc2cc(c1)-c1n[nH]c3ccc(cc13)OCCCNCCO2` [Example 186, 4-(trifluoromethyl)-7,14-dioxa-10,19,20-triazatetracyclo [13.5.2.1^2,6.0^18,21]tricosa-1(20),2,4,6(23),15,17,21-heptaene] it is < 10 nM. The figure for `C[C@@H]1Oc2ccc3[nH]nc(c3c2)-c2cnn(c2)CCOCCO[C@@H]1C` [Example 100, (12R,13S)-12,13-dimethyl-8,11,14-trioxa-4,5,19,20-tetraazatetra cyclo[13.5.2.1^2,5.0^18,21]tricosa-1(20),2(23),3,15(22),16,18(21)-hexaene] is < 100 nM; for `C[C@@H]1COCCn2cc(cn2)-c2n[nH]c3ccc(cc23)OCCO1` [Example 70, (10R)-10-methyl-8,11,14-trioxa-4,5,19,20-tetraazatetracyclo[13.5.2.1^2,5.0^18,21]tricosa-1(20),2(23),3,15(22),16,18(21)-hexaene] it is < 100 nM; for `c1cc2[nH]nc3c2cc1OCCCCCOCCn1cc-3cn1` [Example 108, 8,14-dioxa-4,5,19,20-tetraazatetracyclo[13.5.2.1^2,5.0^18,21]tricosa-1(20),2(23), 3,15(22),16,18(21)-hexaene] it is < 10 nM. The figure for `C[C@@H]1COCC[C@H](C)Oc2ccc3[nH]nc(c3c2)-c2cccc(n2)O1` [Example 33, (8R,13S)-8,13-dimethyl-7,10,14-trioxa-19,20,23-triazatetracyclo[13.5.2.1^2,6.0^18,21]tricosa-1(20),2(23),3,5,15(22),16,18(21)-heptaene] is < 100 nM; for `C[C@@H]1COCCO[C@H](C)c2cncc(c2)-c2n[nH]c3ccc(cc23)O1` [Example 13, (7R,13R)-7,13-dimethyl-8,11,14-trioxa-4,19,20-triazatetracyclo[13.5.2.1^2,6. 0^18,21]tricosa-1(20),2(23),3,5,15(22),16,18(21)-heptaene hydrochloride] it is < 100 nM; for `O=C1COc2cccc(c2)-c2n[nH]c3ccc(cc23)OCCC(CF)N1` (stereo not shown) [Example 154, 11-(fluoromethyl)-7,14-dioxa-10,19,20-triazatetracyclo [13.5.2.1^2,6.0^18,21]tricosa-1(20),2,4,6(23),15,17,21-heptaen-9-one] it is < 100 nM. For the compound `C[C@H]1COc2nccc(n2)-c2n[nH]c3ccc(cc23)O[C@@H](C)CCO1` [Example 59, (9S,13S)-9,13-dimethyl-7,10,14-trioxa-5,19,20,23-tetraazatetracyclo [13.5.2.1^2,6.0^18,21]tricosa-1(20),2(23),3,5,15(22),16,18(21)-heptaene], the IC50 is < 100 nM. The figure for `COC1CNCCOc2cccc(c2)-c2n[nH]c3ccc(cc23)OC1` (stereo not shown) [Example 171, 12-methoxy-7,14-dioxa-10,19,20-triazatetracyclo[13.5.2.1^2,6.0^18,21]tricosa-1(20),2(23),3,5,15,17,21-heptaene] is < 100 nM.

In general, IC50 refers to the point on the concentration scale where inhibition reaches its midpoint.

The values above are taken from patent US20240246992A1, “MACROCYCLIC LRRK2 KINASE INHIBITORS” (LES LABORATOIRES SERVIER, priority 2021, published 2024).
